Paper PMC12605013, “SAG1.3-derived Frizzled-targeting small-molecule compounds” (The Journal of Biological Chemistry, 2025)

Experiments:
Nluc-FZD6 = target: T1, Nluc-FZD6 (Homo sapiens, UniProt O60353); assay: BRET-based BODIPY-cyclopamine competition binding at Nluc-FZD6 in live HEK293 cells
T1 construct: expressed in transfected cells; host or cells: ΔSMO HEK293A or ΔFZD1–10 HEK293T cells (screen); ΔFZD1–10 HEK293T cells (concentration–response curves)
T1 sequence (O60353 19-706): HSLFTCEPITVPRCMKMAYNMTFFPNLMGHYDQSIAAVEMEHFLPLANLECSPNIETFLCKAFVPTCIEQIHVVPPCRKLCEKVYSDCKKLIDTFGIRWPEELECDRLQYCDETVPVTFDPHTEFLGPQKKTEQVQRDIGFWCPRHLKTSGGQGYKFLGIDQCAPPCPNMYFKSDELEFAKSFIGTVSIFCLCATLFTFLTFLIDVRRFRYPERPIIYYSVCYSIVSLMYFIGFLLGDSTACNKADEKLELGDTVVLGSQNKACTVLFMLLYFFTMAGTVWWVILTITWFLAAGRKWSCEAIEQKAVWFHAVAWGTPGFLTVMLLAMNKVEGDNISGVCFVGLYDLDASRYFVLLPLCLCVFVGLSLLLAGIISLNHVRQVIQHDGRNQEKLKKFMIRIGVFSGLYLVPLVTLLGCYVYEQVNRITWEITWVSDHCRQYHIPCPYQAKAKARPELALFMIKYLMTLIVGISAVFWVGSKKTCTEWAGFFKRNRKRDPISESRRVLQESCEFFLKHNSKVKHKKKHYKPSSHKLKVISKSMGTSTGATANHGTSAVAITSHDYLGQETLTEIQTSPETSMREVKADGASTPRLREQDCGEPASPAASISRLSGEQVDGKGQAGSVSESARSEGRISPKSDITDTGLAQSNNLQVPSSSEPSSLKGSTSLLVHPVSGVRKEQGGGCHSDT
Method: After 24 h, cells were washed once with Hanks' balanced salt solution (HBSS), followed by the addition of 80 μl of HBSS. Next, 10 μl of the competitive ligand, that is, the tested SAG1.3 derivative (either in different concentrations for the concentration–response curves or at a final concentration of 10 μM for the first screens) and 10 μl of the fluorescent tracer BODIPY–cyclopamine (final concentration: 300 nM for the first screens, 200 nM for the concentration–response experiments) were added. All serial dilutions were prepared in HBSS. The cells were incubated for 90 min at 37 °C without additional CO2, after which 10 μl of luciferase substrate diluted in HBSS (furimazine; Promega, N1572, final dilution: 1:1000 for first screening) and coelenterazine h (Biosynth; final concentration: 5 μM for concentration–response experiments) were added to the cells. Following a 10 min incubation period in the dark, the measurement was started on a BMG Labtech ClarioStar or TECAN Spark multimode microplate reader, prewarmed to 37 °C. Nluc bioluminescence was detected between 460 and 490 nm (ClarioStar) or 460 and 500 nm (TECAN Spark). The emission of the fluorescent tracer was detected between 520 and 550 nm (ClarioStar) or between 520 and 560 nm (TECAN Spark).
For each binding experiment, the measurement was repeated five times and averaged for the analysis. ΔBRET values were obtained by subtracting the BRET ratio obtained in wells containing BODIPY–cyclopamine but no competitive ligand (100% value). The BRET values for full displacement were defined using “donor-only” control wells, which contained Nluc-FZDx-transfected cells but no BODIPY–cyclopamine.
For the full concentration–response BRET binding curves in Figure 2, BRET values were normalized (separately for each experiment) to control wells containing BODIPY–cyclopamine but no competitive ligand (100% value) and “donor-only” wells (0% value, described previously). […] Obtained IC50 values were transformed to pIC50 values, which were subsequently averaged between experiments. Displacement curves showing the non-normalized data (ΔBRET values generated as described previously) can be found in Fig. S2.
Shown are mean values and SDs from N independent experiments (N = 2-8) performed in duplicate.
Shown are mean values ± SEM from N independent experiments performed in triplicate.

PANC-1 cells = assay: Cell viability (AlamarBlue) of PANC-1 cells; format: cell-based, human; details: one-week treatment; 10 µM
Method: HPAF-II cells and PANC-1 cells were seeded in DMEM at a density of 1000 cells per well into a black opaque 96-well plate (Greiner BioOne). After 1 day, the medium was exchanged with complete DMEM containing either compound 11, the porcupine inhibitor C59, or DMSO (vehicle control). After 3 days of incubation (37 °C, 5% CO2), the medium was exchanged once again with DMEM containing the same concentration of ligands or DMSO (vehicle control). Three days after (equal to 7 days after seeding), the medium was removed and 90 μl of fresh DMEM (without any ligands) were added. Last, 10 μl of AlamarBlue HS reagent (Thermo Fisher Scientific; catalog no.: A50100) were added to each well, and the cells were incubated for 4 h at 37 °C inside the incubator (5% CO2). After the incubation step, fluorescence was read using a TECAN Spark multimode microplate reader (excitation: 535 ± 25 nm, emission: 595 ± 35 nm).
For each cell viability experiment, the fluorescence measured in ligand-treated wells was normalized to the average fluorescence from wells treated with vehicle control (DMSO).

[1] = target: T2, muscarinic acetylcholine M1 receptor (Homo sapiens, UniProt P11229); assay: BRET-based Venus-mGsq recruitment assay at M1R-Nluc; format: cell-based
T2 construct: HA (N); expressed in transfected cells; host or cells: HEK293A cells
T2 sequence (P11229 2-460): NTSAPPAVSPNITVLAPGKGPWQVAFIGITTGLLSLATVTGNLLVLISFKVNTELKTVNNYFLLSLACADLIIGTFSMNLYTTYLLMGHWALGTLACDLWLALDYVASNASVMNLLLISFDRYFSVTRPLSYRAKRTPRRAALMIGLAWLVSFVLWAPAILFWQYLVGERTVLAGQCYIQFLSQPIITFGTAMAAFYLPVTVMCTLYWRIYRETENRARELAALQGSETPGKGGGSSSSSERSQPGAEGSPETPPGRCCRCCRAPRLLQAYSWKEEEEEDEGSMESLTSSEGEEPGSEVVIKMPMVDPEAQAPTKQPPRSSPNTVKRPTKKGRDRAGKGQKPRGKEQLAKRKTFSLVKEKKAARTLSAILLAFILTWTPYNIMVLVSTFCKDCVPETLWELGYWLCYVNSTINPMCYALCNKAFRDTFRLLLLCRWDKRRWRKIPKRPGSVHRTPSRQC
Method: The transfected cells were seeded at a density of 40,000 cells per well into a white opaque 96-well plate. […] Following a 10 min incubation period in the dark, the measurement was started on a TECAN Spark multimode microplate reader, prewarmed to 37 °C. After the three baseline measurements, the ligands diluted in HBSS were added (10 μl) and the measurement continued for a further 15 min. Nluc bioluminescence was detected between 460 and 500 nm. The emission of Venus was detected between 520 and 560 nm.
Figure S3. […] Experiments were performed in HEK293 cells.

Compound: CC(=O)Nc1cccc(C(=O)NC2CCC(N(Cc3cccc(-c4ccncc4)c3)C(=O)c3sc4ccccc4c3Cl)CC2)c1 (stereo not shown) [compound 11, N-((1r,4r)-4-(3-Acetamidobenzamido)cyclohexyl)-3-chloro-N-(3-(pyridin-4-yl)benzyl)benzo[b]thiophene-2-carboxamide]
- Displacement @ 10 µM compound (Nluc-FZD6) ΔBRET (Nluc-FZD6; 10 µM compound, BODIPY-cyclopamine 300 nM, BMG Labtech ClarioStar reader (complete tracer displacement: net BRET = -0.02736)): -0.0228
- Displacement % (Nluc-FZD6; 10 µM compound, BODIPY-cyclopamine 300 nM, ClarioStar reader): 83.2%
- IC50 (Nluc-FZD6; BODIPY-cyclopamine 200 nM, ΔFZD1-10 HEK293T cells, read-out: pIC50 (Nluc-FZD6) mean ± SEM (converted)): 1020 nM
- IC50 values of competition binding within the FZD family (in words) (Nluc-FZD6; Nluc-FZD6 and other FZD paralogs): three-digit nanomolar to single-digit micromolar range
- Cell viability of RNF43-wildtype PANC-1 cells (PANC-1 cells): not significantly affected
- Effect on carbachol-induced M1-mediated mini-Gsq response ([1]; 10 µM compound +/- carbachol): nor affected the concentration-dependent M1-mediated mini-Gsq response
- mini-Gsq recruitment, compound alone (agonist mode) ([1]; increasing concentrations of compound): neither elicited a mini-Gsq recruitment on its own
